We go through 34 compounds from patent US10738041B2, “Ferroportin inhibitors” (Vifor (International) AG, priority 2015, dated 2020).

What is called IC50 is the concentration needed to halve the response being measured.

The target of experiment [1] is T1, ferroportin (Fpn) (Mus musculus, UniProt Q9JHI9).
T1 construct: host or cells: J774 mouse macrophage cell line, Fe(III)-NTA induced
T1 sequence (Q9JHI9 1-570): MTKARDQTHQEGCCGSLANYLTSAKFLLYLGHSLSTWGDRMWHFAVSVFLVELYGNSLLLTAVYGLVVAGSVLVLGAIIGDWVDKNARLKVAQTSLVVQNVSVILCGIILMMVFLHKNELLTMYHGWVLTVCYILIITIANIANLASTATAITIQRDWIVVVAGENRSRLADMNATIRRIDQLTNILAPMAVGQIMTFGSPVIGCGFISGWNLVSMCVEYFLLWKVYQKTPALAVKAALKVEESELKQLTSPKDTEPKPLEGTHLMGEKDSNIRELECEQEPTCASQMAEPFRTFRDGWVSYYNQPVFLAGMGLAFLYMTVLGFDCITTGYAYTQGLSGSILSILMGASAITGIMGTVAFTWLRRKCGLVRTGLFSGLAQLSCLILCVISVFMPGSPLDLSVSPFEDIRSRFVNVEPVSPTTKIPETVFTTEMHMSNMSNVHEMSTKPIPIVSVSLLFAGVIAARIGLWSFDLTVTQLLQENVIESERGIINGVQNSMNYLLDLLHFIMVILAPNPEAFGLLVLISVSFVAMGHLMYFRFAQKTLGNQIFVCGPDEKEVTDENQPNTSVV
Nature of the experiment: Hepcidin Internalization Assay (J774). The format is cell-based. The following applies: average of multiple measurements; inhibition of TMR-hepcidin (25 nM) internalization into J774 cells; read-out: J774 IC50. An excerpt: This cellular assay allows quantification of the binding of hepcidin to ferroportin (Fpn) through microscopic detection of internalization of a fluorescently labeled hepcidin into J774 cells. […] Binding of hepcidin to Fpn triggers internalization and degradation of both hepcidin and Fpn. However, the TMR (6-carboxytetramethylrhodamine) fluorophore attached to hepcidin remains associated with the cell after degradation of the hepcidin peptide backbone. Therefore, microscopic detection of ceH associated TMR fluorescence is a measure of hepcidin binding to Fpn and internalization of hepcidin and Fpn. If TMR-hepcidin is prevented from binding to Fpn, cellular TMR fluorescence remains low (Dürrenberger et al, 2013). The effect of small molecular weight Fpn inhibitor compounds in this assay was evaluated in vitro as described below.
J774 cells, harvested from ca. 80% confluent cultures, were plated at 8×10^5 cells/ml in complete medium (DMEM, 10% FBS, 1% Penicillin-Streptomycin) containing 200 μM Fe(III)NTA (nitrilotriacetic acid), 100 μl per well of 96 well MicroClear plates (Greiner; Cat. 655090) and grown at 37° C. with 5% CO2. After overnight incubation, cells were washed 3 times with pre-warmed DMEM w/o phenol red, 30 μl/well of DMEM w/o phenol red was added after the final wash and 10 μl/well of dilution series of test compounds were added in triplicates. […] Cells were incubated in a total volume of 50 μl at 37° C. with 5% CO2 for 2 hours, then Hoechst 33342 dye was added to a final concentration of 0.5 μg/ml to stain nuclei and further incubated for 10 min. at 37° C. with 5% CO2. Cells were washed 3 times with PBS and fixed in 100 μl of 4% paraformaldehyde in PBS for 15 min. at room temperature. After removal of the paraformaldehyde solution, cells were washed 3 times with PBS leaving 100 μl per well and the plates were sealed with foil plate seal. TMR (530-550 nm excitation/575-625 nm emission/400 ms exposure time) and Hoechst 33342 (360-370 nm excitation/420-460 nm emission/10 ms exposure time) fluorescence images were acquired using a ScanR plate imager (Olympus) with a 20× high NA objective. Four pictures were acquired per well and fluorescence channel covering ca. 1500 cells per well. The acquired image data was analysed with the ScanR image analysis software. Image analysis included detection of nuclei (Hoechst 33342 fluorescence), identification of cell-associated regions, application of a virtual channel and thresholding for rolling-ball-type background reduction, followed by application of the Sum(Mean) algorithm to measure the TMR fluorescence associated with cells as a quantitative measure for internalized TMR-hepcidin. IC50 values were calculated with the Sum(Mean) raw data using “log(inhibitor) vs. response” curve fitting of Prism 5 software (GraphPad Software Inc., version 5.02).

The target of experiment [2] is T2, human Fpn (Homo sapiens, UniProt Q9NP59).
T2 construct: FLAG (C); made in house; host or cells: Pichia pastoris
T2 sequence (Q9NP59 1-571): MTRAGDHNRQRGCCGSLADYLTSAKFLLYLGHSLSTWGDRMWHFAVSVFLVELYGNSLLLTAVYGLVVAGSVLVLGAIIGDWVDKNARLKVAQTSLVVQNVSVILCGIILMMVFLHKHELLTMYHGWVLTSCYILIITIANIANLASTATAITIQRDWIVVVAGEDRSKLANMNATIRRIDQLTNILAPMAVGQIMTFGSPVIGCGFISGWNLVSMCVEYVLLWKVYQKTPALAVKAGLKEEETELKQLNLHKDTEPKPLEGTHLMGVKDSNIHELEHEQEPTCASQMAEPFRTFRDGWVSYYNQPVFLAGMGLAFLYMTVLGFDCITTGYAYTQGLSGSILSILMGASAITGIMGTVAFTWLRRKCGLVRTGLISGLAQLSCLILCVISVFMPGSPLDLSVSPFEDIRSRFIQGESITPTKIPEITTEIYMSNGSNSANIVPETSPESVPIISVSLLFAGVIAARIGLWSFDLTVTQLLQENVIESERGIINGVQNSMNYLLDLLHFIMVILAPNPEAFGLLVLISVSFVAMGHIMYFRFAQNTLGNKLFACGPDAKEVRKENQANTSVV
In words: Biophysical Ferroportin-Hepcidin Binding Assay (fluorescence polarization). The following applies: average of multiple measurements; 1 μM human Fpn, 20 nM TMR-hepcidin; read-out: FP IC50. As to the method: This biophysical assay was developed to confirm inhibition of hepcidin binding to ferroportin (Fpn) more directly. Incubation of TMR-hepcidin with purified human Fpn isolated from Pichia pastoris yeast cells expressing human Fpn with a C-terminal FLAG affinity tag (Bonaccorsi di Patti, 2014) leads to increased fluorescence polarization (FP) of the TMR-hepcidin ligand. Small molecular weight Fpn inhibitors were tested for inhibition of binding of TMR-hepcidin to Fpn, as detected by dose-dependent decrease of the TMR FP signal, as described in detail below.
8 μl of serial dilutions of test compounds were added in duplicates to reach final Fpn and TMR-hepcidin concentrations of 1 μM and 20 nM, respectively. Plates were incubated for 90 minutes at room temperature and parallel (S) and perpendicular (P) fluorescence was measured in a Synergy H1 fluorescence reader (BioTek). FP values were calculated in mP according to the following formula.

Consider `O=C(Nc1ncccc1F)c1csc(CCNCc2nc3ccccc3[nH]2)n1` [Example 77], for which the 50% inhibitory concentration (IC50) was found to be 350 nM in experiment [1] and 2810 nM in experiment [2].

On to `O=C(NCCc1ccccc1)c1csc(CCNCc2nc3ccccc3[nH]2)n1` [Example 78], for which the IC50 in experiment [1] was 410 nM; in experiment [2] it was 4150 nM.

`CC(NC(=O)c1csc(CCNCc2nc3ccccc3[nH]2)n1)c1ccccn1` (centres unmarked) [Example 80]: the half-inhibitory concentration (IC50) in experiment [1] was found to be 345 nM; in experiment [2], 2280 nM.

Consider `O=C(NCc1ccc(C(F)(F)F)nc1)c1csc(CCNCc2nc3ccccc3[nH]2)n1` [Example 81], for which the half-maximal inhibitory concentration (IC50) in experiment [1] was determined as 420 nM; in experiment [2] it was 2970 nM.

For the compound `O=C(NCc1ccc[nH]c1=O)c1csc(CCNCc2nc3ccccc3[nH]2)n1` [Example 83], the IC50 in experiment [1] was determined as 96 nM; in experiment [2] it was 1050 nM.

Regarding `Cn1cc(CNC(=O)c2csc(CCNCc3nc4ccccc4[nH]3)n2)cn1` [Example 91], the half-inhibitory concentration (IC50) stood at 2070 nM in experiment [1] and 12100 nM in experiment [2].

As to `O=C(NCc1ncc[nH]1)c1csc(CCNCc2nc3ccccc3[nH]2)n1` [Example 95], the IC50 in experiment [1] came to 7230 nM; in experiment [2], 13000 nM.

Turning to `O=C(NCc1ccnc(N2CCOCC2)c1)c1csc(CCNCc2nc3ccccc3[nH]2)n1` [Example 96], the IC50 worked out at 2970 nM in experiment [1] and 7290 nM in experiment [2].

For the compound `CN(C)c1ccc(CNC(=O)c2csc(CCNCc3nc4ccccc4[nH]3)n2)cn1` [Example 98], the results for the half-maximal inhibitory concentration (IC50) in experiment [1] and in experiment [2] were 1850 nM and 5710 nM, respectively.

On to `O=C(NCc1cccnc1F)c1csc(CCNCc2nc3ccccc3[nH]2)n1` [Example 103], for which the concentration for half-maximal inhibition (IC50) was 2370 nM in experiment [1] and 2520 nM in experiment [2].

Take `COc1cc(CNC(=O)c2csc(CCNCc3nc4ccccc4[nH]3)n2)ccn1` [Example 104]: the IC50 came to 900 nM in experiment [1] and 1760 nM in experiment [2].

Consider `Cc1ccnc(CNC(=O)c2csc(CCNCc3nc4ccccc4[nH]3)n2)c1` [Example 106], for which the results for the IC50 in experiment [1] and in experiment [2] were 1520 nM and 4460 nM, respectively.

With `O=C(NCc1ncccc1CO)c1csc(CCNCc2nc3ccccc3[nH]2)n1` [Example 110], the concentration for half-maximal inhibition (IC50) in experiment [1] stood at 1700 nM; in experiment [2], 3420 nM.

As for `O=C(NCc1ncccc1F)c1csc(CNCCCc2nc3ccccc3[nH]2)n1` [Example 119], the figures for the IC50 in experiment [1] and in experiment [2] were 164 nM and 5300 nM, respectively.

For the compound `O=C(NCc1ncccc1F)c1csc(CCNc2nc3ccccc3[nH]2)n1` [Example 121], the IC50 in experiment [1] stood at 473 nM; in experiment [2], 5100 nM.

Regarding `O=C(NCc1ncc(F)cc1F)c1csc(CNCCCc2nc3ccccc3[nH]2)n1` [Example 124], the 50% inhibitory concentration (IC50) in experiment [1] came to 6330 nM; in experiment [2], 3500 nM.

Consider `O=C(NCc1ncccc1F)c1csc(CCNCCCc2nc3ccccc3[nH]2)n1` [Example 125], for which the IC50 in experiment [1] is 1660 nM; in experiment [2], 3700 nM.

On to `C=C(C)c1sc(CCNCc2nc3ccccc3[nH]2)nc1C(=O)NCc1ncccc1F` [Example 177], for which the concentration for half-maximal inhibition (IC50) in experiment [1] amounted to 4200 nM; in experiment [2], 15400 nM.

`Cc1cnc(CNC(=O)c2nc(CCNCc3nc4ccccc4[nH]3)sc2Cl)nc1` [Example 178]: the figures for the concentration for half-maximal inhibition (IC50) in experiment [1] and in experiment [2] were 3640 nM and 1920 nM, respectively.

In the case of `O=C(NCc1ncccc1F)c1cnn(CC2CN(Cc3nc4ccccc4[nH]3)C2)c1` [Example 187], the 50% inhibitory concentration (IC50) is 87000 nM in experiment [1] and 35500 nM in experiment [2].

As for `O=C(NCc1ncccc1F)c1cnn(CC2CN(CCc3nc4ccccc4[nH]3)C2)c1` [Example 192], the IC50 stood at 13600 nM in experiment [1] and 49300 nM in experiment [2].

With `Cn1cc(C(=O)NCc2ncccc2F)nc1CCNCc1nc2ccccc2[nH]1` [Example 210], the IC50 is 4910 nM in experiment [1] and 1880 nM in experiment [2].

For `CC1(c2nc(C(=O)NCc3ncccc3F)cs2)CN(CCc2nc3ccccc3[nH]2)C1` [Example 212], the 50% inhibitory concentration (IC50) in experiment [1] came to 8510 nM; in experiment [2], 3760 nM.

As for `O=C(NCc1ncccc1F)c1csc(C2CCN(CCc3nc4ccccc4[nH]3)C2)n1` (centres unmarked) [Example 214], the half-inhibitory concentration (IC50) came out at 14100 nM in experiment [1] and 3190 nM in experiment [2].

For `O=C(NCc1ccccn1)c1csc(C2CCN(CCc3nc4ccccc4[nH]3)C2)n1` (centres unmarked) [Example 215], the results for the half-inhibitory concentration (IC50) in experiment [1] and in experiment [2] were 27700 nM and 15600 nM, respectively.

Regarding `O=C(NCc1ncccc1F)c1csc([C@H]2[C@@H]3CN(CCc4nc5ccccc5[nH]4)C[C@@H]32)n1` [Example 218], the 50% inhibitory concentration (IC50) in experiment [1] was 4500 nM; in experiment [2], 2200 nM.

On to `Cc1c(C(=O)NCc2ncccc2F)ncn1CCNCCc1nc2ccccc2[nH]1` [Example 219], for which the IC50 turned out to be 2430 nM in experiment [1] and 1100 nM in experiment [2].

In the case of `CN(CCc1nc2ccccc2[nH]1)CCc1nc(C(=O)NCc2ncccc2F)co1` [Example 223], the 50% inhibitory concentration (IC50) in experiment [1] is 1900 nM; in experiment [2], 2680 nM.

Regarding `O=C(NCc1ncccc1F)c1cccc(CCNCCc2nc3ccccc3[nH]2)c1` [Example 235], the IC50 was determined as 910 nM in experiment [1] and 295 nM in experiment [2].

As to `O=C1N[C@@H](CCN2CCCc3nc4ccccc4n3C2)C(=O)N1CCc1ncccc1F` [Example 240], the figures for the IC50 in experiment [1] and in experiment [2] were 2450 nM and 2670 nM, respectively.

With `O=C(NCc1ncccc1F)c1cccc(CCNCCc2nc3c(F)cccc3[nH]2)c1` [Example 241], the half-maximal inhibitory concentration (IC50) was 2100 nM in experiment [1] and 1650 nM in experiment [2].

As to `CC(C)(CNCCc1nc2ccccc2[nH]1)c1nc(C(=O)NCc2ncccc2F)cs1` [Example 242], the IC50 in experiment [1] came to 8920 nM; in experiment [2], 27800 nM.

Turning to `O=C(NCc1cccnn1)c1coc(C2CN(CCc3nc4c(F)cccc4[nH]3)C2)n1` [Example 261], the values for the half-maximal inhibitory concentration (IC50) in experiment [1] and in experiment [2] were 554 nM and 440 nM, respectively.

`O=C(c1csc(CCNCc2nc3ccccc3[nH]2)n1)N1CCCCC1` [compound 14]: the IC50 was 4900 nM in experiment [1] and 14900 nM in experiment [2].
